Laboratory results as given in patent US20210220374A1, “METHODS OF TREATING TE[…]” (Clarus Therapeutics, Inc., priority 2013, published 2021).

Assays:
[1] = Example 3 four-week study of Formulation B (LOT-BB); type: in vivo, hypogonadal men
Protocol: The study was designed as an open-label, repeat dose, pharmacokinetic study.
For each subject, the “Day 28” serial PK sampling day was scheduled for Day 32 of the study. […] Doses were administered as capsules, with subjects instructed to take doses 30 minutes after initiation of meals (breakfast and dinner).

[2] = Contingency table classification of C(t) acceptance range as surrogate for Cavg; parameters: species or system hypogonadal men; conditions: for Percent of Subjects: C(t) in range / Percent of Subjects: C(t) too high / Percent of Subjects: C(t) too low / Percent of Subjects: Cavg in range & C(t) in range / Percent of Subjects: Cavg in range & C(t) too high / Percent of Subjects: Cavg in range & C(t) too low / Percent of Subjects: Cavg too high & C(t) too high / Percent of Subjects: Cavg too low & C(t) in range / Percent of Subjects: Cavg too low & C(t) too low / Percent of Subjects: Cavg too high & C(t) in range: Cavg 300-1000 ng/dL
Description: For the contingency table approach, the number and percentage of subjects that fell into each of the following seven categories were enumerated, for each of the candidate time points, and for each candidate target range for Cavg, and for each candidate acceptance range for C(t). • 1. Subjects with Cavg within range and with C(t) within range • 2. Subjects with Cavg below range and with C(t) below range • 3. Subjects with Cavg above range and with C(t) above range • 4. Subjects with Cavg within range but with C(t) below range • 5. Subjects with Cavg within range but with C(t) above range • 6. Subjects with Cavg below range, but with C(t) within range • 7. Subjects with Cavg above range, but with C(t) within range
If one defines a value as being “within range” as positive, and being “outside of range” as negative, then Group 1 is subjects that are “true positives”, Groups 2 and 3 are “true negatives”, groups 4 and 5 are “false negatives”, and groups 6 and 7 are “false positives”. Groups, 1, 2 and 3 represent successful predictions because C(t) is an appropriate surrogate for Cavg; Groups 4, 5, 6 and 7 are prediction failures because C(t) is an inaccurate surrogate for Cavg.
Correlations and contingency table calculations were performed using built-in functions in the Excel module of Microsoft Office 2003 (Redmond, Wash.). Graphs were produced using the built-in charting capabilities of Excel.

[3] = C(1.5), C(t) acceptance 130-1110

## CCCCCCCCCCC(=O)O[C@H]1CC[C@H]2[C@@H]3CCC4=CC(=O)CC[C@]4(C)[C@H]3CC[C@]12C [TU, testosterone undecanoate]
[1]; 200 mg T BID as TU
  Time to T steady-state: 5 to 7 days
[1]; 200 mg T BID as TU, 28 days
  Subjects with Cmax greater than 1500 ng/dL: 13.3%
[1]; 200 mg T BID as TU, 28 days, no dose adjustment
  Subjects with serum T Cavg within the normal range: 86.7%
[1]; after 28 days of treatment
  Endogenous serum T baseline concentration, mean: 108 ng/dL
[1]; after discontinuing treatment
  Time for DHT concentrations to return to pretreatment levels: ≤ 36 h
  Time for E2 concentrations to return to pretreatment levels: ≤ 36 h
[1]; in vivo
  Continued treatment required for maximal suppression of endogenous T production: 5 to 7 days
[1]; steady state
  E2 mean Cavg: 0.022 ng/mL
  E2 mean Cmin: 0.0155 ng/mL
[2]; C(0), C(t) acceptance 80-1000
  Percent of Subjects: C(t) in range: 87.8%
  Percent of Subjects: C(t) too high: C(t) too high 4.9%
  Percent of Subjects: C(t) too low: 7.3%
  Percent of Subjects: Cavg in range & C(t) in range: 75.6%
  Percent of Subjects: Cavg in range & C(t) too high: 2.4%
  Percent of Subjects: Cavg in range & C(t) too low: 2.4%
  Percent of Subjects: Cavg too high & C(t) too high: 2.4%
  Percent of Subjects: Cavg too low & C(t) in range: 7.3%
[2]; C(1), C(t) acceptance 130-1000
  Percent of Subjects: C(t) in range: 85.4%
  Percent of Subjects: C(t) too high: 2.4%
  Percent of Subjects: C(t) too low: 12.2%
  Percent of Subjects: Cavg in range & C(t) in range: 78.0%
  Percent of Subjects: Cavg in range & C(t) too high: 0.0%
  Percent of Subjects: Cavg in range & C(t) too low: 2.4%
  Percent of Subjects: Cavg too high & C(t) too high: 2.4%
  Percent of Subjects: Cavg too low & C(t) in range: 2.4%
  Percent of Subjects: Cavg too low & C(t) too low: 9.8%
[2]; [3]
  Percent of Subjects: C(t) in range: 90.2%
  Percent of Subjects: C(t) too high: 0.0%
  Percent of Subjects: C(t) too low: 9.8%
  Percent of Subjects: Cavg in range & C(t) in range: 80.5%
  Percent of Subjects: Cavg in range & C(t) too high: 0.0%
  Percent of Subjects: Cavg in range & C(t) too low: 0.0%
  Percent of Subjects: Cavg too high & C(t) in range: 7.3%
  Percent of Subjects: Cavg too high & C(t) too high: 0.0%
  Percent of Subjects: Cavg too low & C(t) in range: 2.4%
  Percent of Subjects: Cavg too low & C(t) too low: 9.8%
[2]; C(2), C(t) acceptance 150-1200
  Percent of Subjects: C(t) in range: 90.2%
  Percent of Subjects: C(t) too high: 0.0%
  Percent of Subjects: C(t) too low: 9.8%
  Percent of Subjects: Cavg in range & C(t) in range: 80.5%
  Percent of Subjects: Cavg in range & C(t) too high: 0.0%
  Percent of Subjects: Cavg in range & C(t) too low: 0.0%
  Percent of Subjects: Cavg too high & C(t) in range: 7.3%
  Percent of Subjects: Cavg too high & C(t) too high: 0.0%
  Percent of Subjects: Cavg too low & C(t) in range: 2.4%
  Percent of Subjects: Cavg too low & C(t) too low: 9.8%
[2]; C(3), C(t) acceptance 190-1450, Cavg 300-1000
  Percent of subjects: Cavg in Range F & C(t) in Range F (total of too high and too low): 7.3%
[2]; C(3), C(t) acceptance 190-1500
  Percent of Subjects: C(t) in range: 90.2%
  Percent of Subjects: C(t) too high: 0.0%
  Percent of Subjects: C(t) too low: 9.8%
  Percent of Subjects: Cavg in range & C(t) in range: 78.0%
  Percent of Subjects: Cavg in range & C(t) too high: 0.0%
  Percent of Subjects: Cavg in range & C(t) too low: 2.4%
  Percent of Subjects: Cavg too high & C(t) in range: 7.3%
  Percent of Subjects: Cavg too high & C(t) too high: 0.0%
  Percent of Subjects: Cavg too low & C(t) in range: 4.9%
  Percent of Subjects: Cavg too low & C(t) too low: 7.3%
[2]; C(4), C(t) acceptance 250-1700
  Percent of Subjects: C(t) in range: 82.9%
  Percent of Subjects: C(t) too high: 2.4%
  Percent of Subjects: C(t) too low: 14.6%
  Percent of Subjects: Cavg in range & C(t) in range: 75.6%
  Percent of Subjects: Cavg in range & C(t) too high: 0.0%
  Percent of Subjects: Cavg in range & C(t) too low: 4.9%
